Article doi:10.1101/2021.01.22.427858v1 (biorxiv, 2021)

Each compound was assayed against T1, Human Serum Albumin (HSA) (Homo sapiens, UniProt P02768) (assay: differential scanning calorimetry, bi-dose-response fit). Settings: not given.
T1 sequence (P02768 25-609): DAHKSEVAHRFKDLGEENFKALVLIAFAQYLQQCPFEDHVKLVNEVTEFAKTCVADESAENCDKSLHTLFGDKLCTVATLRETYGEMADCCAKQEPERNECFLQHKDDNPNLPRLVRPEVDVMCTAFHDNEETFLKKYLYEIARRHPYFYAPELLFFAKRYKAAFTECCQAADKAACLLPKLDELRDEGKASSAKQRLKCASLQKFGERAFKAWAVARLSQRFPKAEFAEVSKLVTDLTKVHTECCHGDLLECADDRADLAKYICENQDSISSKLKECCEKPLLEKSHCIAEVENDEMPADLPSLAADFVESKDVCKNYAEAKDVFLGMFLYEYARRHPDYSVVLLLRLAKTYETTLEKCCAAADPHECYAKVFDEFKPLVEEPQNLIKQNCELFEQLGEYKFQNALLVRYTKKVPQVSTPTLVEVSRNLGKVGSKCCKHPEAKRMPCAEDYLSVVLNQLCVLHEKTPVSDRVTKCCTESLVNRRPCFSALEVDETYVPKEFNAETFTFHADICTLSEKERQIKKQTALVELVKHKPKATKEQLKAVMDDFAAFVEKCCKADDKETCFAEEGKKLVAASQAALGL
For C[CH2][Hg][S]c1ccccc1C(=O)O [Thimerosal], the KD1 was 3.13 ± 0.43 10^-6 M.

These compounds were tested against T1, Human Serum Albumin (HSA) (assay: biochemical). Settings: not given.
Type: binding
Work on O=C1OC2(c3ccc(O)cc3Oc3cc(O)ccc32)c2ccccc21 [Fluorescein] yielded a Kd of 3.31 ± 1.7 µM. Cc1c(C2(c3cc(Br)c(O)c(Br)c3C)OS(=O)(=O)c3ccccc32)cc(Br)c(O)c1Br [Bromocresol Green] showed a Kd of 3.31 ± 1.7 µM.

The compounds below were run against T1, Human Serum Albumin (HSA) (assay: not given). Settings: binder.
Cc1c(C2(c3cc(Br)c(O)c(Br)c3C)OS(=O)(=O)c3ccccc32)cc(Br)c(O)c1Br [Bromocresol Green] was tested, and the “dTm (C)” value was 6.29 °C. With COc1ccc2cc([C@H](C)C(=O)O)ccc2c1 [Naproxen] the “dTm (C)” value was 5.52 °C. C[C@H]1O[C@@H](O[C@H]2[C@@H](O)C[C@H](O[C@H]3[C@@H](O)C[C@H](O[C@H]4CC[C@@]5(C)[C@H](CC[C@@H]6[C@@H]5CC[C@]5(C)[C@@H](C7=CC(=O)OC7)CC[C@]65O)C4)O[C@@H]3C)O[C@@H]2C)C[C@H](O)[C@@H]1O [Digitoxin] was tested, and the “dTm (C)” value was 3.92 °C.

Same assay, conditions: ligand concentration not given; binder
CCN(CC)CCCC(C)Nc1ccnc2cc(Cl)ccc12 (stereo not drawn) [Chloroquine] was tested, and the “dTm (C)” value was 1.43 °C. In the case of C[C@H](CS)C(=O)N1CCC[C@H]1C(=O)O [Captopril], the “dTm (C)” value is reported as -0.41 °C. With CC(NC(C)(C)C)C(=O)c1cccc(Cl)c1 (stereo not drawn) [Buproprion] the “dTm (C)” value was 0.62 °C. For CN(C)C(=N)NC(=N)N [Metformin], the “dTm (C)” value was -0.31 °C. For O=C1OC2(c3ccc(O)cc3Oc3cc(O)ccc32)c2ccccc21 [Fluorescein], the “dTm (C)” value was 7.95 °C. For C[C@]12CC[C@@H]3c4ccc(O)cc4CC[C@H]3[C@@H]1CC[C@@H]2O [β-Estradiol], the “dTm (C)” value was 0.92 °C. In the case of CCCCNc1ccc(C(=O)OCCN(C)C)cc1 [Tetracaine], the “dTm (C)” value is reported as 3.16 °C. COCCc1ccc(OCC(O)CNC(C)C)cc1 (stereo not drawn) [Metoprolol] was tested, and the “dTm (C)” value was -0.40 °C. C=CC1=C(C)/C(=C/c2[nH]c(Cc3[nH]c(/C=C4\NC(=O)C(C)=C4C=C)c(C)c3CCC(=O)O)c(CCC(=O)O)c2C)NC1=O [Bilirubin] was tested, and the “dTm (C)” value was 0.30 °C. In the case of Cn1c(=O)c2c(ncn2C)n(C)c1=O [Caffeine], the “dTm (C)” value is reported as 0.47 °C. In the case of CCCCCCCCCC(=O)O [Decanoic Acid], the “dTm (C)” value is reported as 24.56 °C.

What follows are compounds tested against T1, Human Serum Albumin (HSA) (assay: differential scanning calorimetry). Settings: not given.
Type: binding
With CN(C)C(=N)NC(=N)N [Metformin] the KD1 was 2.01 ± 0.43 10^-6 M.
